Results on one substance are retold here after patent US20090263780A1, “Organ preservation fluid” (priority 2008, published 2009).

The data set relates to Cortical neurons cultures. Briefly: Neuron viability (MTT reduction test) after anoxic insult. Format: cell-based, Sprague-Dawley rats. How it is done: Neuron culture: Cortical neurons cultures were prepared from fetal Sprague-Dawley rats at 17-day gestation. Timed pregnant Sprague-Dawley rats were euthanized with isoflorane. After dissection of the cortical region of the fetal brain, cortical neurons were dispersed by trituration, centrifuged at 250 g for 5 minutes at 4° C., and suspended in a neurobasal medium supplemented with 25 μmol/L glutamic acid, 0.5 mmol/L glutamine, 1% antibiotic-antimycotic solution, and 2% B27 supplement. Cells were plated at 5×10^5 cells/ml on poly-L-lysine-coated 24-well plates. Cytosine (10 μmol/) was added at day 3. Neuron cultures were fed every 4 days with replacement of half of neurobasal medium containing 0.5 mmol/L glutamine, 1% antibiotic-antimycotic solution, and 2% B27 supplement. The culture plates were incubated at 37° C. in a humid atmosphere with 5% CO2. […]
Validation of neurons' survival: Neuronal viability was quantitatively evaluated by a methyl thiazole tetrazolium (MTT) reduction test. This quantifies the formation of a dark blue formazan product formed by the reduction of the tetrazolium ring of MTT by the mitochondrial succinate dehydrogenase in living cells. […] Cell viability corresponded to the value of the optical density read at 570 nm with background subtraction at 630 nm. Results were expressed as percent of the optical density measured in normal control cells.
In general terms: Tetrazolium dyes change colour on reduction, which living cells bring about.

As to “B: 2 wt % albumin (native bovine serum albumin, molecular weight 68 kDa, pI 4.8) + ACSF”, the “Neuronal viability after anoxia, result in words” value (ACSF supplemented with the polypeptide, anoxic environment, comparison) was “significantly increased neuronal viability”. Besides, the “Neuron's viability (Percentage, Mean ± SD)” value (anoxia 60 mins at 37° C., culture media replaced by 2 wt % test polypeptide + ACSF, MTT 24 hours after anoxia, percent of optical density in normal control cells) is reported as 96 ± 3.9 Percentage.
